Test results reported in patent US8470964B2, “Peptides derived from NCAM (FGLs)” (Enkam Pharmaceuticals A/S, priority 2007, dated 2013).
Values joined by “and” are separate entries in the source; they are usually repeats but may differ in a detail not shown here. Equal values may be shown once. Where no end group is shown, it is not given here.

Key:
adult male Wistar rats = test: Morris Water Maze spatial learning; format: in vivo, rat; settings: 2.5 mg/kg s.c. as a single dose 5, 3 and 1 day prior to training; versus vehicle
Experimental: FIG. 6. Effects of FGLs on spatial learning in the Morris Water Maze. Rats received FGLs or vehicle subcutaneously as a single dose of 2.5 mg/kg 5, 3 and 1 day prior to first test (trials 1-4 in above graph). The second test (trials 5-8 in above graph) took place the day after the first test. The results were analysed using analysis of variance (ANOVA) and Student's t-test. Data are mean escape latency(s) (±SEM) to find the platform over the 2 training days (t1-t4). *p<0.05, when compared with the Vehicle/Control group at the same time point.
The aim of this study was to investigate whether the subcutaneous administration of FGLs modulates spatial learning in adult male Wistar rats, using the Morris Water Maze as test system.
In the MWM test, rats are evaluated in the task to learn and remember the location of an escape platform hidden just under the water surface. In this study the test set-up was optimised for measuring learning. Rats received FGLs 2.5 mg/kg or vehicle subcutaneously as a single dose 5, 3 and 1 day prior the start of the training in the MWM.

intact adult rats = test: Social Recognition Test (SRT), short-term social memory, subcutaneous administration; format: in vivo, rat
Experimental: (§1) FIG. 3. Effects of a single administration of vehicle or of FGLs on short-term social memory as evaluated in the Social Recognition Test (SRT). FGLs (8.0 mg/kg) or vehicle (sterile water, 4.0 ml/kg) was administered s.c. and the rats were tested twice with the initial trial of SRT performed 1 h and 73 h after administration. The juvenile rat was presented twice with an inter-trial interval of 2 hours. In each experimental group data were obtained from 9 to 11 rats. Results are shown as Mean and SEM of recognition ratio (RR). […] Comparisons of RR values to a hypothetical value 0.50 were carried using one-sample t-test. **P<0.01.
as §1, with “4.” for “3.”, “(1.0, 2.0, 4.0 and 8.0” for “(8.0”, “24” for “73”
FIG. 5. Effects of subcutaneous administration of FGLs, FGLL and VEB1 (2 administrations at the stated doses) on short-term social memory as evaluated in the Social Recognition Test (SRT). Results are shown as Mean and SEM of recognition ratio (RR). […] Comparisons of RR values to a hypothetical value 0.50 were carried using one-sample t-test.
The activity of FGLs, administered subcutaneously, in enhancing social memory in intact adult rats was examined in three studies. In both studies the test system was the Social Recognition Test (SRT), which is a reliable test for the evaluation of compounds active on short-term memory (Dantzer et al., 1987). In our studies we used a protocol of SRT were a juvenile rat was presented to the test rat twice, with an inter-trial interval (ITI) of 2 hours between the two tests. […] In the first study the rats received a single subcutaneous dose (8.0 mg/kg) of FGLs and were tested 1 hour and 73 hours after administration.
In the second study the rats received a single subcutaneous dose of 1.0, 2.0, 4.0 or 8.0 mg/kg of FGLs and were tested 1 hour and 24 hours after administration.
In the third study the dose response effects (0.25, 0.80, 2.50 and 8.0 mg/kg) of subcutaneous administration of FGLs were tested. In parallel were also tested FGLL and VEB1, another truncated form of FGLL. The peptides were administered twice, 24 and 5 hours before the first SRT, and the rats were tested 5 hour and 77 hours after the last administration

[1] = Visual appearance of peptide diluted in water; format: physicochemical; settings: 100 mg/ml in water, room temperature
Experimental: FIG. 11. Visual appearance of FGLL and FGLs. 100 mg of FGLL and FGLs, respectively were diluted in 1 ml water at room temperature for visual inspection.
FGFL and FGFs were diluted in water at a concentration of 100 mg/ml for visual inspection (FIG. 11). […] In another experiment were 5 mg of FGLL and FGLs respectively diluted in 1 ml water or PBS at room temperature. Light microscopy pictures of the water and PBS solutions of FGLL and FGLs can be seen in FIG. 12. In FIG. 13. is a 90° light-scattering spectra of 100 mg/ml FGFL and FGLs in water showing the difference in intensity between the FGF L and the FGLs, solution.

[2] = system: (25-35) β-amyloid peptide fragment induced cognitive deficits model in rats; test: (25-35) β-amyloid induced cognitive deficits, intranasal administration, SRT; format: in vivo, rat; settings: 1.28 mg/kg intranasally daily, 15 doses day 7 to 21; SRT 22 days after β-amyloid injection
Text: FIG. 9. Effects of intranasal administration of FGLs on the β-amyloid neurotoxicity induced deficit on performance in the Social Recognition Test. Rats received an intranasal administration of FGLs at the stated doses or vehicle daily at days 7 to 21 after i.c.v. administration of the (25-35) β-amyloid (A-β) fragment. 8-10 animals per group. Results are expressed as Means and SEM of Recognition Ratio and analyzed by one-sample t-test: **p<0.05.
In this study, the (25-35) β-amyloid peptide fragment induced cognitive deficits model in rats was used to investigate the dose-response (0.08, 0.32 or 1.28 mg/kg) effect of FGLs administered intranasally daily for 15 doses from day 7 to day 21 post β-amyloid peptide i.c.v. injection. The social memory performance was evaluated using the SRT, 22 days after the β-amyloid injection. A statistically significant impairment of short-term memory was observed as a consequence of the (25-35) β-amyloid neurotoxicity in the rats receiving the (25-35) β-amyloid fragment plus vehicle.

[3] = s.c., administered twice, 77 hours after the last administration

Substance: FGLs: two identical 11 amino acid peptides (VAENQQGKSKA), forming a dimer through a linker molecule (iminodiacetic acid); peptide amide (VAENQQGKSKA-NH2; not fully specified; also: dimer of two identical peptides through iminodiacetic acid linker, attachment site not given here)
- spatial learning in Morris Water Maze (escape latency) (adult male Wistar rats): learned significantly faster than vehicle treated ones
- duration of mnemotropic effects after administration (intact adult rats; s.c. administration, short-term social memory): at least 72 hours
- minimum effective dose in SRT (intact adult rats; s.c., administered twice (24 and 5 hours before first SRT), 5 hours post administration, intact rats): 0.80 mg/kg and 0.8 mg/kg
- dose with significant social memory enhancing effect in SRT (intact adult rats; [3]): 2.50 mg/kg
- social memory enhancing effect in SRT (intact adult rats; [3]): Significant memory enhancing effects
- memory enhancing effect in SRT (recognition ratio) (intact adult rats; single s.c. dose 8.0 mg/kg, tested 1 hour after administration, inter-trial interval 2 hours): significant memory enhancing effect
- memory enhancing effect in SRT (recognition ratio) (intact adult rats; single s.c. dose 8.0 mg/kg, tested 73 hours after administration, inter-trial interval 2 hours): tendency to significance (p=0.06)
- memory enhancing effect in SRT (recognition ratio) (intact adult rats; single s.c. dose 2.0, 4.0 and 8.0 mg/kg, 1 hour post administration): significant memory enhancing effect
- memory enhancing effect in SRT (recognition ratio) (intact adult rats; single s.c. dose 4.0 and 8.0 mg/kg, 24 hours after administration): significant memory enhancing effect
- visual appearance of solution [1]: remained clear
- deficit in social memory performance (SRT) compared with vehicle treated rats [2]: significant (p<0.01) amelioration of the deficit
